Measurements as given in US20070054353A1, “Nuclear receptor transcriptional corepressor and uses thereof” (priority 2002, published 2007).

What was measured:
[1] = molecular target: T1, VDR (Homo sapiens, UniProt P11473); experiment: Transient transfection luciferase reporter, VDR transactivation in COS-7 cells; type: cell-based; details: TSA 3 μM, COS-7 cells
T1 construct: expressed in transfected cells; host or cells: COS-7
T1 sequence (P11473 1-427): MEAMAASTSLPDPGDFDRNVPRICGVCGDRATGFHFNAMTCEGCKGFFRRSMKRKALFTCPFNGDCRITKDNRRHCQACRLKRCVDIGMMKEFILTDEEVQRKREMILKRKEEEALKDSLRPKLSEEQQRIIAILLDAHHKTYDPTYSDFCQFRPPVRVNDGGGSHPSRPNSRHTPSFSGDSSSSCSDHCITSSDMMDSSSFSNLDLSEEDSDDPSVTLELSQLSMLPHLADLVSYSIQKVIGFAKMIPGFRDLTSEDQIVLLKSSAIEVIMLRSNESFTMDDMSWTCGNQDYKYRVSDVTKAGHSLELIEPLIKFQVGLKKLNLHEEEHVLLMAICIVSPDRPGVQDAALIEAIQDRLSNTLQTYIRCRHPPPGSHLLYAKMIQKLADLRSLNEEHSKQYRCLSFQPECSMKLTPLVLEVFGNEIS
Protocol: (§1) All cell lines were cultured under the recommended conditions. COS-7 cells grown in […] in DMEM without phenol red, supplemented with 10% FBS were transfected in medium without serum with lipofectamine 2000 (Invitrogen, Burlington, Ont.) with 100 ng of nuclear receptor expression vectors as indicated, 200 ng of TIF-2 or TIF-2.1, as indicated, 250 ng of reporter plasmid, 250 ng of infemal control vector pCMV-βgal, and various concentrations of LCoR/pSG5 or LCoR-LSKAA/pSG5 expression vectors and pSG5 carrier. Medium was replaced 24 h after transfection by a medium containing charcoal-stripped serum and ligand (100 nM) and TSA (3 μM) for 18 h, as indicated. Cells were harvested in 200 […] of reporter lysis buffer (Promega).
(§2) COS-7 cells were cotransfected with expression vectors for ERα HEG0 (A and C) or GR (D) or PR (F) or VDR (H), ERE3-TATA-pXP2 (A and C), GRE5/pXP2 (D and F) or VDRE3tk/pXP2 (H) luciferase reporter vectors, pCMV-β-gal as internal control, and LCoR/pSG5 or LSKAA/pSG5 expression vectors as indicated. Cells were treated with 10^−7M of hormones (solid bars) or vehicle (open bars). Normalized luciferase activities (RLU) are the means±SEM from at least 3 experiments. […] Cells were transfected as in FIG. 5A with LCoR, TIF-2 or TIF2.1 as indicated. […]

[2] = test system: 5×17 mer-tk promoter; experiment: GAL4-LCoR repression of 5×17 mer-tk promoter in COS-7 cells; type: cell-based; details: TSA 3 μM
Protocol: as §1, §2

[3] = test system: HDAC6; experiment: ERα-dependent CAT reporter with LCoR and HDAC6 cotransfection in MCF-7 cells; type: cell-based, human; details: estradiol 10 nM, TSA 500 nM, trapoxin 50 nM
Protocol: All cells were cultured under the recommended conditions. For immunocytochemistry, COS-7 cells grown on collagen IV-treated microscope slides in 6-well plates in DMEM, supplemented with 10% FBS were transfected in medium without serum with 12.5 μl of lipofectamine 2000 (Invitrogen, Burlington, Ont.) containing 1 μg each of pSG5/LCoR and HA-Flag-HDAC6/pcDNA3. Medium was replaced 24 h after transfection and cells were prepared for immunocytochemistry after 48 h as described below. For immunoprecipitation of tagged proteins, MCF-7 cells in 100 mm dishes were transfected with 10 μl of lipofectamine containing 10 μg of pSG5 vectors containing Flag-LCoR, Flag-m1, Flag-m2 or Flag-m1+2. For analysis of the effects of HDACs 3 or 6 on LCoR corepression, COS-7 cells (60-70% confluent) grown in DMEM without phenol red, supplemented with 10% FBS on 6-well plates were transfected in medium without serum with lipofectamine 2000 (Invitrogen, Burlington, Ontario, Canada) with 100 ng of ERα expression vectors as indicated, 300 ng of LCoR/pSG5, 300 ng of HA-HDAC3/pCDNA3.1 or […], 250 ng of ERE3-TATA-CAT reporter plasmid, 250 ng of internal control vector pCMV-βgal, and pBluescript carrier DNA to 4 μg. Medium was replaced 18 hr after transfection by a medium containing charcoal-stripped serum and ligand (10 nM) for 30 hr, as indicated. […]

CC(/C=C/C(=O)NO)=C\[C@@H](C)C(=O)c1ccc(N(C)C)cc1 [TSA, trichostatin A]
effect on LCoR repression of VDR function [1]: little or no effect
effect on repression by GAL-LCoR [2]: little or no effect
effect on HDAC6 repression / enhancement of LCoR corepression of ERα transactivation [3]: abolished
